The values that follow come from paper PMC8879200, “Design, Synthesis, and Biological Evaluation of 4,4’-Difluorobenzhydrol Carbamates as Selective M1 Antagonists” (Pharmaceuticals, 2022).

For orientation: Ki means a dissociation constant, usually derived from enzyme kinetics or from competition with a known ligand. As usually defined, the chromatographic logD is lipophilicity estimated from chromatographic retention. Higher therefore signals a more lipophilic compound.

Like-named read-outs stand apart in the source and are kept apart here.

One data set has as its target T1, hM1 (Homo sapiens, UniProt P11229).
T1 construct: host or cells: CHO-K1, stably transfected
T1 sequence (P11229 1-460): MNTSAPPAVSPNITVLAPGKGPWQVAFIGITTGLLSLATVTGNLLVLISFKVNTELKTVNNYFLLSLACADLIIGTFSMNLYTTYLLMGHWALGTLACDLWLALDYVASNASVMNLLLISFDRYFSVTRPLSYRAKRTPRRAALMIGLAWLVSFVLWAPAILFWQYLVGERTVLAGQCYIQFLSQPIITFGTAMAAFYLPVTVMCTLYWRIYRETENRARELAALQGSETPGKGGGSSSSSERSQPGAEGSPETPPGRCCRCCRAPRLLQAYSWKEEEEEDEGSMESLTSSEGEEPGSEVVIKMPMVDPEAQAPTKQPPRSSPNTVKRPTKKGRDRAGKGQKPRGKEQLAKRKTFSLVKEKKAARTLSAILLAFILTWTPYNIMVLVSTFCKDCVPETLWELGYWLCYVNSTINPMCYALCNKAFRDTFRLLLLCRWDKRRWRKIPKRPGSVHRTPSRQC
In words: Competitive [3H]NMS radioligand binding, CHO-hM1 cell membranes. Here is the method: (§1) We first assessed the carbamates’ affinities for human muscarinic acetylcholine receptors subtypes hM1–5 by means of a competitive radioligand binding assay displacing [N-methyl-^3H]scopolamine methyl chloride ([^3H]NMS) in cell membranes expressing the individual receptors.
(§2) Cell membranes bearing hM1-hM5 receptors were prepared as described previously. Briefly, stably transfected CHO-K1 cells were grown to at least 80% confluency in T175 flasks, washed with ice-cold DPBS, and scraped into a mixture of ice-cold of 2 mL 10 mM Tris-HCl, 1 mM EDTA-buffer, pH 7.4 and 200 µL protease inhibitor. A cell homogenate was prepared by passing the cell suspension through a G29 needle. The cell homogenates corresponding to two T175 flasks were combined and subsequently centrifuged (10 min, 1000 × g, 4 °C). Ultracentrifugation of the supernatant (1 h, 100,000 × g, 4 °C) yielded a membrane pellet, which was suspended in 250 µL 50 mM Tris-HCl buffer, pH 7.4 and stored at −80 °C.
(§3) Maximum binding was measured by using 5 µL DMSO, and nonspecific binding was measured by using 5 µL of 1 µM scopolamine in DMSO. […] The membrane-bound radioactivity was recovered by filtration through Whatman™ GF/B glass fibre filters pre-soaked in aqueous 0.1% PEI using an M-36 tygon tubed cell harvester (Brandel®, Gaithersburg, MD, USA). Membranes were washed 3 times with ice-cold washing buffer (50 mM Tris, pH 7.4) before being dried, transferred to 2 mL scintillation cocktail (UltimaGold™, high flashpoint LSC cocktail, PerkinElmer, Waltham, MA, USA) and counted in a β -counter (Hidex TDCR Liquid Scintillation Counter in CPM mode). IC50 values were calculated by a variable slope logistic regression using at least five distinct concentrations of test compounds, pipetted in triplicates.

The target in the next data set is T2, hM2 (Homo sapiens, UniProt P08172).
T2 construct: host or cells: CHO-K1, stably transfected
T2 sequence (P08172 1-466): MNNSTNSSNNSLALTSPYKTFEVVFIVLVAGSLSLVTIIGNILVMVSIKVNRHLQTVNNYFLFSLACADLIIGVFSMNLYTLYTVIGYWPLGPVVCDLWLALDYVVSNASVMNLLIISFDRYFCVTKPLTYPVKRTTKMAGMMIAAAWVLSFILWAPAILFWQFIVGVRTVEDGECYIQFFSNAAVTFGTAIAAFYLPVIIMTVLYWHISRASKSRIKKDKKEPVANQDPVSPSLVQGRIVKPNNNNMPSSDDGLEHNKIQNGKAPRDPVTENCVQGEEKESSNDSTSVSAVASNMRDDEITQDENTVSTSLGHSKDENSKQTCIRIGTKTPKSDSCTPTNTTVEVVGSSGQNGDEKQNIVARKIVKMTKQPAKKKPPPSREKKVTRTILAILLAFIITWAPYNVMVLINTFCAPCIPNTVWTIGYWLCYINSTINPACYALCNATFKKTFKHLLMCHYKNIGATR
In words: Competitive [3H]NMS radioligand binding, CHO-hM2 cell membranes. As to conditions: read-out: Affinity: Ki ± SD, hM2. Here is the method: as §1, §2, §3

For a further data set, the target named is T3, hM3 (Homo sapiens, UniProt P20309).
T3 construct: host or cells: CHO-K1, stably transfected
In words: Competitive [3H]NMS radioligand binding, CHO-hM3 cell membranes. As to conditions: read-out: Affinity: Ki ± SD, hM3. Here is the method: as §1, §2, §3

A further data set deals with T4, hM4 (Homo sapiens, UniProt P08173).
T4 construct: host or cells: CHO-K1, stably transfected
T4 sequence (P08173 1-479): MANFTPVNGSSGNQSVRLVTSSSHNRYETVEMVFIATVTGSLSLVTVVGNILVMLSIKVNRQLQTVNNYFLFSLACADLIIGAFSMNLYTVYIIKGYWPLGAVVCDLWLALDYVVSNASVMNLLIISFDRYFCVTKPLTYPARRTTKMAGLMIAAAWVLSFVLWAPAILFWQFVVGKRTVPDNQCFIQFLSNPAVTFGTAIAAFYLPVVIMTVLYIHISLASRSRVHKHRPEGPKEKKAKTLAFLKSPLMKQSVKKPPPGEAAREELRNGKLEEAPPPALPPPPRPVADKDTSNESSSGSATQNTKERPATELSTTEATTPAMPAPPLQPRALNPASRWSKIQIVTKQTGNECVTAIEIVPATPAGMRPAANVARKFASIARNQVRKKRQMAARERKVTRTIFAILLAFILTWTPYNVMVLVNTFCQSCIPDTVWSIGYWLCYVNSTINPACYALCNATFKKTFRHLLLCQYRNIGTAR
As to the kind of experiment: Competitive [3H]NMS radioligand binding, CHO-hM4 cell membranes. Here is the method: as §1, §2, §3

The target of the next data set is T5, hM5 (Homo sapiens, UniProt P08912).
T5 construct: host or cells: CHO-K1, stably transfected
T5 sequence (P08912 1-532): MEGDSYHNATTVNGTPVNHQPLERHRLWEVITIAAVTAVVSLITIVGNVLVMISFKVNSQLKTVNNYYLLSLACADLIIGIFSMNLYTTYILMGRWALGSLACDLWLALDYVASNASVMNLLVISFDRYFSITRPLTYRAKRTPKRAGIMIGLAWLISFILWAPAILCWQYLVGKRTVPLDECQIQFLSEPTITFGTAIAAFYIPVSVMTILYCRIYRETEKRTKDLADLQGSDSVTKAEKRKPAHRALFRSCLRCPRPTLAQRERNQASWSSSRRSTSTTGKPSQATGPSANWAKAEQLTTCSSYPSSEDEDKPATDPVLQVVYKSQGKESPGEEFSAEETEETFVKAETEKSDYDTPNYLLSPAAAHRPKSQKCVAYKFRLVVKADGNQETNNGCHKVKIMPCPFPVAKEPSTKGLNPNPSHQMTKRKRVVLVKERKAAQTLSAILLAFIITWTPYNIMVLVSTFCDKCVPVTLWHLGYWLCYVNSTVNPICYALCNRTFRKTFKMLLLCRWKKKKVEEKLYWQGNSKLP
As to the kind of experiment: Competitive [3H]NMS radioligand binding, CHO-hM5 cell membranes. Here is the method: as §1, §2, §3

Data set [1] can be described thus: High throughput HPLC-logD (lipophilicity). As to conditions: pH 7.4.
Method: Briefly, a mixture of toluene (≥98%, Sigma-Aldrich, St. Louis, MO, USA) and triphenylene (≥99.9%, Carl Roth, Karlsruhe, Germany) was used as internal standard. Each sample was dissolved in the internal standard mixture. Using gradient elution, the injection volume was set to 7 µL, the flow rate was 1.5 mL/min, and the mobile phase consisted of a mixture of methanol and 0.01 M sodium phosphate buffer pH 7.4. The HPLC-logD values were derived from the measured retention times following the previously published equation [27, 30].
A short description of data set [2]: Stability in fully supplemented RPMI1640 cell culture medium. It is filed as in vitro ADME. As to conditions: fully supplemented RPMI1640, ambient temperature, after 24 h. Here is the method:
Since the decomposition in cell culture medium of compounds designated for biological testing could impair potential assay readouts, the stabilities of one tertiary carbamate (3) and one secondary carbamate (7) were investigated as representatives for the compound set 1–12. Gratifyingly, the rate of decomposition in fully supplemented RPMI1640 cell culture medium at ambient temperature has been fairly slow, with > 95% of both compounds remaining intact after 24 h (Supplementary Materials, Figure S3). Such stability is adequate with the requirements for carbon-11 labelled PET tracers of around 2–3 half-lives.
The stabilities of 3 and 7 were measured using the HPLC gradient method as described for the purity determination. 4 µL of a test compound’s stock solution in DMSO was diluted with fully supplemented RPMI1640 cell culture medium (10% FBS, 1% L-glutamine, without antibiotics). The stability was measured at ambient temperature and the column oven was set to 20 °C. The samples were measured at 0, 30, 60, 120 min and 24 h.

Where [3] appears, read: inhibition of [3H]NMS binding, CHO-hM1 membranes, read-out: Affinity: Ki ± SD, hM1.
[4] abbreviates: inhibition of [3H]NMS binding, CHO-hM4 membranes, read-out: Affinity: Ki ± SD, hM4.
The mark [5] stands for this setting: inhibition of [3H]NMS binding, CHO-hM5 membranes, read-out: Affinity: Ki ± SD, hM5.

T3 sequence (P20309 whole entry): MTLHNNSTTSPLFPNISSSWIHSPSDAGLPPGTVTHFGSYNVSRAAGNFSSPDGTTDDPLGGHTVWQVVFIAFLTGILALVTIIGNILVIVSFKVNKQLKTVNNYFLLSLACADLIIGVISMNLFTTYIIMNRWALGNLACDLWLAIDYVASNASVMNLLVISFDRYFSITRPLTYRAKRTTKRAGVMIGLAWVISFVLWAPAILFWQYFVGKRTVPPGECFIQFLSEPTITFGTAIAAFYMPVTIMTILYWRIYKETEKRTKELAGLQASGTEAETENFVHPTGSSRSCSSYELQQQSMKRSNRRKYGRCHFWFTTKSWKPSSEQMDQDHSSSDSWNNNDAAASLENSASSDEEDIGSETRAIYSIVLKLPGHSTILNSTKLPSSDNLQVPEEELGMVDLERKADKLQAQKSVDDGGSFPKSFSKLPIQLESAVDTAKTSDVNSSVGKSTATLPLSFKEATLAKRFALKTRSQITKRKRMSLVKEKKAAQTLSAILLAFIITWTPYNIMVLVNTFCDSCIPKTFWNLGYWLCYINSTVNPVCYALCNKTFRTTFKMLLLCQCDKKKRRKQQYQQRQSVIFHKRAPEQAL

In the case of `CN1CCN(C(=O)OC(c2ccc(F)cc2)c2ccc(F)cc2)CC1` [Compound 1, Bis(4-fluorophenyl)methyl 4-methylpiperazine-1-carboxylate], the Ki on hM1 (setting [3]) was 15.2 ± 3.6 nM; on hM2, more than 1000 nM; on hM3, 226 ± 85.2 nM; at hM4 (setting [4]), 54.8 ± 20.5 nM; at hM5 (setting [5]), 50.6 ± 3.9 nM. The compound further displayed a chromatographic logD in data set [1] of 3.16 ± 0.01.

On to `CN1CCCN(C(=O)OC(c2ccc(F)cc2)c2ccc(F)cc2)CC1` [Compound 2, Bis(4-fluorophenyl)methyl 4-methyl-1,4-diazepane-1-carboxylate], for which the inhibition constant (Ki) on hM1 (setting [3]) is 1.2 ± 0.4 nM; at hM2, 227 ± 85.9 nM; at hM3, 28.4 ± 10.7 nM; on hM4 (setting [4]), 14.4 ± 5.5 nM; at hM5 (setting [5]), 4.8 ± 1.6 nM. The chromatographic logD in data set [1] amounted to 3.2 ± 0.02.

As to `CN1CC2CC1CN2C(=O)OC(c1ccc(F)cc1)c1ccc(F)cc1` (stereo not shown) [Compound 3, Bis(4-fluorophenyl)methyl5-methyl-2,5-diazabicyclo[2.2.1]heptane-2-carboxylate], in data set [2], the “Compound remaining intact in cell culture medium” value is more than 95%. In addition, the Ki on hM1 (setting [3]) is 33.1 ± 8.1 nM; on hM2, more than 1000 nM; at hM3 it was 358 ± 83 nM; on hM4 (setting [4]), 115 ± 51 nM; at hM5 (setting [5]) it was 68 ± 22.1 nM. In data set [1], this compound registered a chromatographic logD of 2.69 ± 0.01.

Consider `CN1[C@@H]2CC[C@H]1CN(C(=O)OC(c1ccc(F)cc1)c1ccc(F)cc1)C2` [Compound 4, Bis(4-fluorophenyl)methyl (1R,5S)-8-methyl-3,8-diazabicyclo[3.2.1]octane-3 carboxylate], for which the Ki at hM1 came to 16.5 ± 2.8 nM; at hM2 it was 850 ± 39.8 nM; on hM3, 142 ± 24.2 nM; on hM4, 19.6 ± 5.5 nM; on hM5 it was 41.8 ± 14.8 nM. The chromatographic logD in data set [1] is 3.28 ± 0.03.
